Columns and labels:
APE1 [1] = molecular target: T1, APE1 (Homo sapiens, UniProt P27695); assay: Gel-based radiotracer (32P) APE1 incision assay; assay type: biochemical; set-up: concentration or dose not given beside the values; conditions: percent incision shown; entries 1-112;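 further: APE1 incision reactions ran 5 min at 37 °C, with cleaved product and intact substrate resolved electrophoretically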
T1 construct: made in house

E. coli Endo IV = molecular target: T2, E. coli Endo IV (Escherichia coli, UniProt P0A6C1); assay: E. coli Endo IV profiling counterscreen; assay type: biochemical; conditions: read-out: EndoIV IC50;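 further: selectivity counterscreen of candidate APE1 inhibitors against the bacterial endonuclease Endo IV, run in the same assay format as the primary APE1 high-throughput screen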
T2 construct: made in house
Description: In order to screen out nonselective compounds, such as non-specific DNA binders and inhibitors of related enzymes, we used a miniaturized ThO DNA displacement assay and a counterscreen against the bacterial endonuclease E. coli Endo IV, respectively, following the previously published protocols [21].
To probe the selectivity of the candidate APE1 inhibitors, we tested them against E. coli EndoIV [36], employing the same assay as used in the HTS.

APE1 [2] = molecular target: T1, APE1; assay: Fluorogenic kinetic qHTS APE1 incision assay (primary screen and retest of cherrypicked samples); assay type: biochemical;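 further: purified APE1 cleaving a fluorophore/dark-quencher labelled 17-mer duplex DNA bearing a tetrahydrofuran AP site, fluorescence rise followed kinetically over the first 2 min, inhibition normalized to controls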
Procedure: All screening operations were performed on a fully integrated robotic system (Kalypsys, San Diego, CA) [28] with library plates screened proceeding from the lowest to the highest concentration to minimize compound carryover [26]. Vehicle-only plates, with DMSO being pin-transferred to the entire column 5–48 compound area, were included regularly throughout the screen in order to record any systematic shifts in assay signal. During the screen, reagent bottles were kept at 4°C and all liquid lines were covered with aluminum foil to minimize degradation.
Screening data were corrected and normalized, and concentration–effect relationships was derived using in-house developed algorithms [25].
To screen for inhibitors of APE1 incision activity, we employed a purified-enzyme biochemical assay with a model substrate featuring a red-shifted fluorescent reporter in combination with a dark non-emitting quencher. These moieties were incorporated as end labels onto a 17-mer double-stranded DNA fragment containing a centrally-located tetrahydrofuran AP site sugar mimetic, which serves as the APE1 cleavage site. Upon APE1-catalyzed strand scission immediately 5′ to the AP site analog, the shortened oligodeoxynucleotide carrying the fluorescent reporter spontaneously dissociates from the rest of the substrate, leading to an increase in fluorescence due to its spatial separation from the dark quencher (Figure 1A).
Using a high-speed whole-plate fluorescence imager, the assay data for the entire screen was conducted in kinetic mode, with the APE1 incision reaction being monitored over the initial linear time frame of 2 min (Figure 1B). Thus, any inhibition associated with each sample was computed from the alteration in fluorescence intensity over the time-course measurement period, after normalization against the appropriate controls (Figure 1B, inset).

HeLa cells = assay: MMS potentiation assay (CellTiter Glo viability); assay type: cell-based, human; set-up: key: N.A., no activity observed; P, positive; I, inconclusive; N.T., not tested; conditions: for MMS Assay: potentiation of the genotoxic effect of methylmethane sulfonate
Procedure: HeLa cells were plated at 6000 cells/well in DMEM culture medium containing 10% FBS into white solid bottom 384-well cell culture plates. The plates were incubated at 37°C overnight for cell attachment, followed by media replacement. The fresh medium contained serial dilutions of compounds of interest in the presence (0.4 mM final) or absence of MMS. The plates were incubated for 24 h at 37°C. Cell viability was determined by luminescence detection after an addition of 15 µL of CellTiter Glo reagent (Promega, Madison, WI). Percent viability was calculated for each concentration of compound tested in duplicate by relating the corresponding luminescence to that of a negative DMSO vehicle control. MMS potentiation trends were defined as follows: negative (-), if cell viability in the compound-plus-MMS treatment was the same as that of the DMSO-plus-MMS control (overlapping dose-response curves); inconclusive (I), if the shift in the cell viability dose-response upon MMS inclusion relative to compound-alone was less than 30%; and positive (P), if the difference between the compound-plus-MMS and compound-alone curves was at least 30%, and maintained within at least a two-fold compound concentration span.
To examine the biological prospects of the top compounds, we tested their ability to inhibit APE1 DNA repair activity by assessing enhancement of MMS toxicity in mammalian cells. MMS creates methylated-base damage to genomic DNA, which, when excised by an alkylpurine DNA glycosylase, results in a high number of cytotoxic AP sites. We compared the viability of HeLa cells exposed to a dilution series of inhibitor alone to a combination of a fixed MMS concentration with the same dilution series of inhibitor by using a standard CellTiter Glo luminescence assay. This technique measures the number of viable cells in culture based on quantitation of the ATP present, which signals the presence of metabolically active cells. The assay was further optimized for 384-well plates, allowing a high-throughput testing of multiple hits at multiple concentrations, a scope of investigation previously impossible due to the very low throughput of the traditionally applied colony formation assay.
From the 223 compounds found positive in the gel-based APE1 assays, exclusion of the most promiscuous hits, that is, those that were both DNA binders and EndoIV-inhibitory, yielded a set of 170 compounds (Figure 3). This shortened group of hits was tested in the cell-based potentiation assay for their ability to dose-dependently enhance sensitivity of HeLa cells to the alkylating agent MMS.

[3] = molecular target: double-stranded 17-mer DNA fragment; assay: ThO (Thiazole Orange) DNA displacement assay; assay type: binding; conditions: read-out: ThO-DNA binding IC50;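 further: miniaturized displacement of the intercalating dye from unlabeled duplex DNA, used to flag nonspecific DNA binders, chiefly intercalators, groove binders may be missed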
APE1 [4] = molecular target: T1, APE1; assay: Fluorescence polarization (FP) displacement assay of APE1 binding to AP-DNA probe; conditions: read-out: FP IC50;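 further: TAMRA 5′-labeled duplex DNA with THF abasic site (5 nM) and APE1 (20 nM), Mg2+-free buffer, 15 min at room temperature, inhibition seen as lowered polarization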
Procedure: Double-stranded oligodeoxynucleotide containing tetrahydrofuran (THF) abasic site labeled with TAMRA at the 5′-end was used as the labeled binding probe. Inhibition of APE1 binding to labeled probe was detected by a decrease in the fluorescence polarization (FP) of the fluorophore. Briefly, 4 µL mixture of 20 nM APE1 and 5 nM probe contained in the enzymatic assay buffer from which Mg^2+ was omitted, was dispensed into 1536-well Greiner black solid bottom plates. Compounds (23 nL) were transferred via pintool, and after a 15-minute incubation at room temperature, fluorescence polarization was measured in a ViewLux High-throughput CCD imager (480 nm excitation and 540 nm emission) to determine the degree of probe displacement caused by the test compounds.

APE1 [5] = molecular target: T1, APE1; assay: Gel-based APE1 incision assay with fluorescence (TAMRA) detection; assay type: biochemical
[6] = initial quantitative high-throughput screen, read-out: APE1 qHTS IC50
[7] = retest of cherrypicked sample, read-out: APE1 Retest IC50
[8] = entries 113-223: fluorophore detection, estimated IC50, read-out: Gel-based electrophoretic separation assay with fluorophore detection, estimated IC50 (column headed Radiotracer Assay (%Activity))
[9] = estimated IC50, fluorophore detection, entries 113-223, read-out: F-PAGE Assay IC50

T1 sequence (P27695 whole entry): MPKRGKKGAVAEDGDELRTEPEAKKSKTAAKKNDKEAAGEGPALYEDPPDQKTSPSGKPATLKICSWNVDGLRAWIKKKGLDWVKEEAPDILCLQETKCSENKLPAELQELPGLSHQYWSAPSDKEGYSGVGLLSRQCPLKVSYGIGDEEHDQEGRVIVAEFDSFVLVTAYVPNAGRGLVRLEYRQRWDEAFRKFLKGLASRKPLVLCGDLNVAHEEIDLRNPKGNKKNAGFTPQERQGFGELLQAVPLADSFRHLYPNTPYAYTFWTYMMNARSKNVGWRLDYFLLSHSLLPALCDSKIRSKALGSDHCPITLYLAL

Structure (SMILES) | Radiotracer Assay (%Activity) (APE1 [1]) | IC50 (E. coli Endo IV) | IC50 (APE1 [2]; [6]) | IC50 (APE1 [2]; [7]) | MMS Assay (HeLa cells) | IC50 [3] | IC50 (APE1 [4]) | MMS Assay: potentiation of the genotoxic effect of methylmethane sulfonate (HeLa cells) | IC50 (APE1 [5]; [8]) | IC50 (APE1 [5]; [9])
COc1ccc2c(c1)c(=O)oc1cc(OCC(=O)N3CCC(C)CC3)ccc12 [MLS000088142] | 29% | > 57 µM | 15.6 µM | 5 µM | I | > 57 µM | 14.1 µM |  |  | 
CC(C)C(=O)NC(C)C(c1cccs1)N1CCN(c2ccccc2)CC1 (stereo not shown) [MLS000092582] |  | > 57 µM |  |  | I | > 57 µM |  |  |  | 
O=C(COC(=O)/C=C/c1ccco1)Nc1ncc(Cl)cc1Cl [MLS000391557] |  | > 57 µM |  |  | I | > 57 µM |  |  |  | 
CC(=O)Nc1sc2c(c1-c1nc3ccccc3s1)CCN(C(C)C)C2 [MLS000419194] | 2% |  | 14.1 µM | 3.9 µM | P | > 57 µM | 2.5 µM |  |  | 
Cc1ccccc1CN1CCN(Cc2cc(=O)c3ccccc3[nH]2)CC1CCO (stereo not shown) [MLS001000225] |  | > 57 µM |  |  |  | > 57 µM |  | I |  | 
COc1ccc(OCCOc2ccc(/C=C3\C(=N)N4N=C(C)SC4=NC3=O)cc2)cc1 [MLS001359901] |  | > 57 µM | 9.5 µM | 5.8 µM |  | > 57 µM | > 57 µM |  | 10 µM | 
O=C(O)C1CCCCC1C(=O)Nc1cccc(Br)c1 (stereo not shown) [MLS002152987] |  | > 57 µM | 0.5 µM | 5.1 µM |  | > 57 µM | > 57 µM |  |  | 0.9 µM
COc1ccc(NC(=O)COC(=O)c2cc3c(s2)CCC3)cc1 [MLS002159150] |  | > 57 µM | 5.3 µM | 11.5 µM |  | > 57 µM | 36.3 µM |  |  | 7.1 µM
Cc1ccc(NC(=O)C(c2ccccc2)N2CCN(CC(=O)N3CCOCC3)CC2)cc1Cl (stereo not shown) [MLS002162303] |  | > 57 µM | 10.6 µM | 9.1 µM |  | > 57 µM | > 57 µM |  |  | 3.5 µM
O=C(NC1CC1)C1CCN(S(=O)(=O)c2cc([N+](=O)[O-])ccc2Cl)CC1 [MLS002162311] |  | > 57 µM | 10.6 µM | 32.4 µM |  | 36.3 µM | > 57 µM |  |  | 8.9 µM
O=C(CSc1nnc(Nc2ccccc2F)s1)NC(=O)CN1CCCC1=O [MLS002163634] |  | > 57 µM | 10.6 µM | 10.2 µM |  | > 57 µM | 18.2 µM |  |  | 8.9 µM
COc1ccc(NC(=O)c2cc(-c3ccco3)nc3ccccc23)cn1 [MLS002164354] |  | 22.9 µM | 11.9 µM | 14.5 µM |  | > 57 µM | 36.3 µM |  |  | 7.1 µM
CCOc1ccc(NC(=O)c2cccc(-n3cccc3)c2)cc1S(=O)(=O)N1CCOCC1 [MLS002164959] |  | > 57 µM | 1.3 µM | 11.5 µM |  | > 57 µM | > 57 µM |  |  | 2.8 µM
NS(=O)(=O)c1ccc(NC(=O)CSc2nnc(NC3CC3)s2)cc1 [MLS002169032] |  | > 57 µM | 10.6 µM | 10.2 µM |  | > 57 µM | > 57 µM |  |  | 6.3 µM
O=C(COC(=O)Cc1cccc(C(F)(F)F)c1)NCc1ccco1 [MLS002169571] |  | > 57 µM | 10.6 µM | 45.7 µM |  | > 57 µM | > 57 µM |  |  | 7.1 µM
COCCN(CC(=O)Nc1cccc(C)c1C)C(=O)c1cc2c(s1)CCC2 [MLS002170765] |  | > 57 µM | 15 µM | 18.2 µM |  | > 57 µM | > 57 µM |  | 17.8 µM | 

— article PMC3479139, “Diverse Small Molecule Inhibitors of Human Apurinic/Apyrimidinic Endonuclease APE1 Identified from a Screen of a Large Public Collection” (PLoS ONE, 2012)
